In US7928099B2, “Pyrimido [4,5-D] azepine derivatives as 5-HT2c agonists” (Pfizer Inc, priority 2007, dated 2011):
Counter-ions that a name gives are not always drawn.

Assays:
[1] = man; cited from earlier work
[2] = cited from earlier work; for bladder capacity: anaesthetized guinea-pig cystometry; for urethral EMG activity: anaesthetized guinea-pig urethral EMG model
[3] = anaesthetized dog; cited from earlier work
[4] = conscious rats and monkeys; i.v., i.p., s.c. or i.m. administration; cited from earlier work
[5] = target: T1, human recombinant 5-HT2c receptor (Homo sapiens, UniProt P28335); assay: FLIPR fluorescent Ca2+ mobilisation agonist assay in CHO K1 cells (Method 1); assay type: cell-based; settings: for Emax: CHO-K1, efficacy; for EC50: agonist affinity, FLIPR
T1 construct: expressed in transfected cells; host or cells: CHO K1 (Chinese hamster ovary), stably transfected
T1 sequence (P28335 33-458): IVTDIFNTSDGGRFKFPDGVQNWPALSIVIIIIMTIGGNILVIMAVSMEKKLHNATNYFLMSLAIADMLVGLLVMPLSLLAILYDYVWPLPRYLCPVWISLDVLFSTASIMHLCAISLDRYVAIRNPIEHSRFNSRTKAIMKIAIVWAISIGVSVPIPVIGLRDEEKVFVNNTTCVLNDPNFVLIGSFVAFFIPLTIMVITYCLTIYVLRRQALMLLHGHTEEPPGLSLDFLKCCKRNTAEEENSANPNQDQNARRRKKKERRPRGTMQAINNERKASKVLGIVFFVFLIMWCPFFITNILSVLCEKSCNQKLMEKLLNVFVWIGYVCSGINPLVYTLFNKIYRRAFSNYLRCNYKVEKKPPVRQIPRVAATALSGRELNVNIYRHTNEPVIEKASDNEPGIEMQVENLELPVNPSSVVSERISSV

[6] = target: T1, human recombinant 5-HT2c receptor; assay: 3H-meselurgine radioligand binding SPA, membranes from Swiss 3T3 cells (Method 2); settings: 3H-meselurgine displacement, Cheng-Prusoff; Swiss 3T3 membranes; read-out: Binding Affinity Ki
Protocol: The compounds of the invention were evaluated for biological activity by measuring the agonist affinity (EC50) and efficacy (Emax) at the human recombinant 5-HT2c receptor expressed in CHO K1 cells, using a fluorescent based Ca^2+ mobilisation assay format compatible with FLIPR technology (Method 1). Additionally, the binding activity of a compound was determined by measuring its affinity for the human recombinant 5-HT2c receptor membranes from Swiss 3T3 cells (Method 2).
The compounds were tested for biological activity by their ability to inhibit binding of the radioligand ^3H-meselurgine at the human recombinant 5-HT2C receptor expressed in the Swiss 3T3 cells using a scintillation proximity assay (SPA) technology.
Swiss 3T3 stably transfected with the 5-HT2C receptor were cultured under standard cell culture techniques. Specifically, cells were grown in 50 mL growth medium (Dulbecco's Modified Eagle's Medium (DMEM) culture media supplemented with 10% dialysed foetal calf serum (FCS), 2 mM penicillin/streptomycin and 20 μg/mL geneticin) in 225 cm^2 flasks at 37° C. and 5% CO2. Cells were grown to 60-80% confluency, harvested using trypsin-EDTA and pelleted by centrifugation for long-term storage at −80° C.
Cell pellets were thawed on ice and resuspended in 3 mL of membrane preparation buffer (see Media and Buffers for composition) per 1 mL of packed cell. The suspension was homogenised on ice for several 5 s intervals using a hand-held homogeniser. The homogenate was then centrifuged at 1,000 rpm for 5 min at 4° C.
The supernatants were then collected and retained. Initial cell & nuclei pellets (P1) were subsequently rehomogenised and centrifuged using the conditions cited above, and the supernatants collected and pooled with those retained from the first spin.
The pooled supernatants were centrifuged at 19,500 rpm for 45 min at 4° C., and the supernatants discarded. The pellets (P2) were then resuspended in 3 mL of membrane preparation buffer per 1 mL of the original packed cell volume. Protein concentrations were subsequently measured and the membrane suspension was finally frozen in aliquots of set volume and stored at −80° C. prior to use in assays.
For each batch of membrane used, optimal concentrations of Polylysine YSi SPA beads and membrane were determined. The assay free radioligand concentration was expressed as a percentage of the total free radioligand concentration to give an estimate of the radioligand depletion.
The affinity of ^3H-meselurgine for the human recombinant 5-HT2c receptor was determined for each membrane batch at the selected protein and bead concentrations. […] The mean KD for ^3H-meselurgine at a batch of membranes was determined from data from a minimum of three separate assays.
The required amount of membrane, was thawed on ice and added to a pre-determined volume of bead suspension in 50 mM HEPES buffer, pH 7.4. The beads were then pre-coupled by incubating the predetermined protein quantity per mg of bead on a roller 4° C. for 1 h. Subsequently, the bead/membrane complex was spun down at 1000 rpm for 5 min. The resulting pellet was resuspended in assay buffer at the specific concentration required for the final assay.
An aliquot of [^3H]-meselurgine stock was diluted in binding assay buffer to give a pre-determined final assay concentration less than the equilibrium dissociation constant (KD) value.
All test compounds were prepared at a concentration of 4 mM in 100% dimethyl sulphoxide (DMSO) from dry samples.
The same volume of assay buffer was added to specific wells of the plate to enable subsequent measurement of total radioligand binding. Furthermore, 5 μL of Mianserin at 25 μM (2.5 μM final assay concentration was subsequently added to pre-determined wells to determine non-specific binding (NSB).

[7] = percentage of mean maximal response to 10 μM 5-HT

Compound | Emax [5, 7] | EC50 [5] | Ki [6] | also measured
O=c1n(CCCN2CCN(c3cccc(Cl)c3)CC2)nc2ccccn12 [trazodone] |  |  |  | proerectile activity [1]: associated with proerectile activity
C[C@H](N)Cn1ccc2cc(F)c(Cl)cc21 [Ro-60-0175] |  |  |  | bladder capacity [2]: doses related increases; urethral EMG activity [2]: doses related increases; urethral pressure [3]: increased urethral pressure in a dose-dependent manner; penile erection [4]: enhance penile erection
CCc1cc2c(ccc3cnn(C[C@H](C)N)c32)o1 [YM348] |  |  |  | bladder capacity [2]: doses related increases; urethral EMG activity [2]: doses related increases
CC(CO)Nc1nc(Cc2ccccc2)nc2c1CCNCC2 (centres unmarked) [Example 33, 2-[(2-benzyl-6,7,8,9-tetrahydro-5H-pyrimido[4,5-d]azepin-4-yl)amino]propan-1-ol hydrochloride] | 58.5% | 424 nM | 125 nM | 
CCCCc1nc(Cc2ccccc2)nc2c1CCNCC2 [Example 69, 2-Benzyl-4-butyl-6,7,8,9-tetrahydro-5H-pyrimido[4,5-d]azepine] | 77.1% | 274 nM | 153 nM | 
CC(C)(c1ccccc1)c1nc2c(c(N3CCOCC3)n1)CCNCC2 [Example 11, 2-(1-Methyl-1-phenylethyl)-4-morpholin-4-yl-6,7,8,9-tetrahydro-5H-pyrimido[4,5-d]azepine] | 75.2% | 884 nM | 73.5 nM | 
CC(C)(c1ccccc1)c1ncc2c(n1)CCNCC2 [Example 9, 2-(1-Methyl-1-phenylethyl)-6,7,8,9-tetrahydro-5H-pyrimido[4,5-d]azepine] | 52.6% | 732 nM | 401 nM | 
OC1(CNc2nc(Cc3ccccc3)nc3c2CCNCC3)CCC1 [Example 41, 1-{[(2-benzyl-6,7,8,9-tetrahydro-5H-pyrimido[4,5-d]azepin-4-yl)amino]methyl}cyclobutanol hydrochloride] | 74.7% | 57 nM | 86.9 nM | 
c1ccc(Cc2nc3c(c(N4CCCCC4)n2)CCNCC3)cc1 [Example 29, 2-benzyl-4-piperidin-1-yl-6,7,8,9-tetrahydro-5H-pyrimido[4,5-d]azepine hydrochloride] | 37.7% | 962 nM | 177 nM | 
Fc1ccc(Cc2ncc3c(n2)CCNCC3)cc1 [Example 62, 2-(4-Fluorobenzyl)-6,7,8,9-tetrahydro-5H-pyrimido[4,5-d]azepine] | 59.6% | 309 nM | 471 nM | 
Clc1cccc(N2CCNCC2)c1 [m-CPP] |  |  |  | bladder capacity [2]: doses related increases; urethral EMG activity [2]: doses related increases; proerectile activity [1]: associated with proerectile activity; penile erection [4]: enhance penile erection
CC1CNCCc2cnc(Cc3ccccc3)nc21 (single isomer, unassigned) [47 (Peak 2), 2-Benzyl-9-methyl-6,7,8,9-tetrahydro-5H-pyrimido[4,5-d]azepine] | 76.6% | 233 nM | 218 nM | 
CCc1nc(Cc2ccccc2)nc2c1CCNCC2 [Example 52, 2-Benzyl-4-ethyl-6,7,8,9-tetrahydro-5H-pyrimido[4,5-d]azepine] | 71.6% | 314 nM | 142 nM | 
FC1CCN(c2nc(Cc3ccccc3)nc3c2CCNCC3)C1 (centres unmarked) [Example 43, 2-benzyl-4-(3-fluoropyrrolidin-1-yl)-6,7,8,9-tetrahydro-5H-pyrimido[4,5-d]azepine hydrochloride] | 52.6% | 190 nM | 61 nM | 
FC(F)(F)c1cccc(Cc2ncc3c(n2)CCNCC3)c1 [Example 63, 2-[3-(Trifluoromethyl)benzyl]-6,7,8,9-tetrahydro-5H-pyrimido[4,5-d]azepine] | 44.1% | 298 nM | 308 nM | 
OC1CCN(c2nc(Cc3ccccc3)nc3c2CCNCC3)C1 (centres unmarked) [Example 44, 1-(2-benzyl-6,7,8,9-tetrahydro-5H-pyrimido[4,5-d]azepin-4-yl)pyrrolidin-3-ol hydrochloride] | 75.5% | 136 nM | 139 nM | 
2-[Difluoro(phenyl)methyl]-N-methyl-6,7,8,9-tetrahydro-5H-pyrimido[4,5-d]azepin-4-amine [Example 8] |  | 128 nM | 44.5 nM | Emax % ([5]; efficacy, percentage of mean maximal response to 10 μM 5-HT): 54.30%
N#CC1CCCN(c2nc(Cc3ccccc3)nc3c2CCNCC3)C1 (centres unmarked) [Example 40, 1-(2-benzyl-6,7,8,9-tetrahydro-5H-pyrimido[4,5-d]azepin-4-yl)piperidine-3-carbonitrile hydrochloride] | 40.6% | 309 nM | 413 nM | 
CC1CCCN(c2nc(Cc3ccccc3)nc3c2CCNCC3)C1 (centres unmarked) [Example 30, 2-benzyl-4-(3-methylpiperidin-1-yl)-6,7,8,9-tetrahydro-5H-pyrimido[4,5-d]azepine hydrochloride] | 54.8% | 984 nM | 99.1 nM | 
OC1CCN(c2nc(Cc3ccccc3)nc3c2CCNCC3)CC1 [Example 38, 1-(2-benzyl-6,7,8,9-tetrahydro-5H-pyrimido[4,5-d]azepin-4-yl)piperidin-4-ol hydrochloride] | 66% | 336 nM | 514 nM | 
CN(C)c1nc(N(C)Cc2ccccc2)nc2c1CCNCC2 [Example 14, N-2-benzyl-N-2,N-4,N-4-trimethyl-6,7,8,9-tetrahydro-5H-pyrimido[4,5,d]azepin-2-amine] | 50.8% | 279 nM | 144 nM | 
c1ccc(C2(c3nc4c(c(N5CCOCC5)n3)CCNCC4)CC2)cc1 [Example 13, 4-Morpholin-4-yl-2-(1-phenylcyclopropyl)-6,7,8,9-tetrahydro-5H-pyrimido[4,5-d]azepine] | 64.4% | 499 nM | 2300 nM | 
